The record followed here is US9688702B2, “Alpha-amino boronic acid derivatives, selective immunoproteasome inhibitors” (Ares Trading S.A, priority 2011, dated 2017).

Experiment [1] addresses LMP7 (purified human immuno proteasome) (Homo sapiens, UniProt P28062). Kind of experiment: Determination of LMP7 activity (fluorescence intensity assay, Suc-LLVY-AMC). The format is biochemical. The following applies: for IC50: 40 μM Suc-LLVY-AMC, 37° C. As for the experimental part: Measurement of LMP7 inhibition is performed in 384 well format based on fluorescence intensity assay.
Purified human immuno proteasome (0.5 nM) and serial diluted compounds in DMSO (range of concentrations from 10 μM to 38 pM) or controls (0.5% DMSO) are incubated for 30 minutes at 37° C. in assay buffer containing 50 mM Tris pH 7.4 and 0.03% SDS. The reaction is initiated by the addition of the fluorogenic peptide substrate, Suc-LLVY-AMC (Bachem I-1395), at a concentration of 40 μM. After 90 minutes of incubation at 37° C., fluorescence intensity is measured at λex=350 nm and λem=450 nm with a fluorescence reader (BMG Pherastar reader or equivalent).
Purified human immuno proteasome (0.25 nM) and serial diluted compounds in DMSO (range of concentrations from 10 μM to 38 pM) or controls (0.5% DMSO) are incubated for 30 minutes at 37° C. in assay buffer containing 50 mM Tris pH 7.4 and 0.03% SDS. The reaction is initiated by the addition of the fluorogenic peptide substrate, Suc-LLVY-AMC (Bachem I-1395), at a concentration of 40 μM. After 90 minutes of incubation at 37° C., fluorescence intensity is measured at λex=350 nm and λem=450 nm with a fluorescence reader (BMG Pherastar reader or equivalent).

Experiment [2] addresses Beta5 (purified human constitutive proteasome) (Homo sapiens, UniProt P28074). Description: Determination of Beta5 activity (fluorescence intensity assay, Suc-LLVY-AMC). The format is biochemical. The conditions noted are these: purified human constitutive proteasome 1.0 nM, 40 μM Suc-LLVY-AMC, 37° C. As for the experimental part:
Measurement of Beta5 inhibition is performed in 384 well format based on fluorescence intensity assay.
Purified human constitutive proteasome (1.0 nM) and serial diluted compounds in DMSO (range of concentrations from 10 μM to 38 pM) or controls (0.5% DMSO) are incubated for 30 minutes at 37° C. in assay buffer containing 50 mM Tris pH 7.4 and 0.03% SDS. The reaction is initiated by the addition of the fluorogenic peptide substrate, Suc-LLVY-AMC (Bachem 1-1395), at a concentration of 40 μM. After 90 minutes of incubation at 37° C., fluorescence intensity is measured at λex=350 nm and λem=450 nm with a fluorescence reader (BMG Pherastar reader or equivalent).

The mark [3] stands for this setting: purified human immuno proteasome 0.25 nM (examples 79, 80, 83, 84, 85, 87, 88, 89, 90, 91, 93, 94, 96, 97, 101 and 110).
Setting [4] is: purified human immuno proteasome 0.5 nM.

Structures can show the parent of a compound that is named as a salt.

As to `O=C(CCc1ccc(F)cc1)N[C@@H](Cc1coc2ccccc12)B(O)O` [Example 80, (R)-(2-(benzofuran-3-yl)-1-(3-(4-fluorophenyl)propanamido)ethyl) boronic acid], the “Selectivity LMP7 vs Beta5” value in experiment [1] is on record as “+++ (+++: Selectivity > 30)”. The half-inhibitory concentration (IC50) in experiment [1] (setting [3]) and in experiment [2] was less than 50 nM in each case.
As for `CC(=O)N[C@@H](Cc1coc2ccccc12)B(O)O` [Example 78, (R)-(1-acetamido-2-(benzofuran-3-yl)ethyl)boronic acid], in experiment [1], the “Selectivity LMP7 vs Beta5” value is on record as “+++ (+++: Selectivity > 30)”. Besides, the IC50 was less than 50 nM in experiment [1] (setting [4]) and 500 to 5000 nM in experiment [2].
For `O=C(CCc1noc(-c2ccccc2)n1)N[C@@H](Cc1ccsc1)B(O)O` [Example 37, [(1R)-1-{[3-(5-phenyl-1,2,4-oxadiazol-3-yl)propanoyl]amino}-2-(3-thienyl)ethyl]boronic acid] the same measures were “++ (++: 10 < Selectivity < 30)”, 50 to 500 nM and 500 to 5000 nM.
For `O=C(CCn1c(=O)sc2ccccc21)N[C@@H](Cc1ccc2ccccc2c1)B(O)O` [Example 96, (R)-(2-(naphthalen-2-yl)-1-(3-(2-oxobenzo[d]thiazol-3(2H)-yl)propanamido)ethyl)boronic acid], the “Selectivity LMP7 vs Beta5” value in experiment [1] is “+++ (+++: Selectivity > 30)”. For the same molecule, the half-maximal inhibitory concentration (IC50) in experiment [1] (setting [3]) and in experiment [2] was less than 50 nM in each case.
For the molecule `COc1ccc(C(=O)CCC(=O)N[C@@H](Cc2cc(F)cc(OC)c2)B(O)O)cc1` [Example 47, (R)-(2-(3-fluoro-5-methoxyphenyl)-1-(4-(4-methoxyphenyl)-4-oxobutanamido)ethyl)boronic acid], the “Selectivity LMP7 vs Beta5” value in experiment [1] is reported as “+++ (+++: Selectivity > 30)”. The IC50 was 50 to 500 nM in experiment [1] (setting [4]) and more than 5000 nM in experiment [2].
With `O=C(CCc1cccc(F)c1)N[C@@H](Cc1coc2ccccc12)B(O)O` [Example 85, (R)-(2-(benzofuran-3-yl)-1-(3-(3-fluorophenyl)propanamido)ethyl) boronic acid], in experiment [1], the “Selectivity LMP7 vs Beta5” value is recorded as “+++ (+++: Selectivity > 30)”. For the same molecule, the IC50 in experiment [1] (setting [3]) and in experiment [2] was less than 50 nM throughout.
For the molecule `O=C(CCc1noc(-c2ccccc2)n1)N[C@@H](Cc1cccc(C(F)(F)F)c1)B(O)O` [Example 39, {(1R)-1-{[3-(5-phenyl-1,2,4-oxadiazol-3-yl)propanoyl]amino}-2-[3-(trifluoromethyl)phenyl]ethyl}boronic acid], in experiment [1], the “Selectivity LMP7 vs Beta5” value is “+++ (+++: Selectivity > 30)”. Moreover, the IC50 was in the range of 50 to 500 nM in experiment [1] (setting [4]) and 500 to 5000 nM in experiment [2].
For `COc1ccc(C[C@H](NC(=O)CCn2cnc3ccccc32)B(O)O)cc1C(F)(F)F` [Example 53, (R)-(1-(3-(1H-benzo[d]imidazol-1-yl)propanamido)-2-(4-methoxy-3-(trifluoromethyl)phenyl)ethyl)boronic acid] the same measures were “+ (+: Selectivity < 10)”, less than 50 nM and 50 to 500 nM.
As to `O=C(CCc1ccccc1)N[C@@H](Cc1coc2ccccc12)B(O)O` [Example 94, (R)-(2-(benzofuran-3-yl)-1-(3-phenylpropanamido)ethyl)boronic acid], the “Selectivity LMP7 vs Beta5” value in experiment [1] is reported as “+++ (+++: Selectivity > 30)”. Also, the IC50 in experiment [1] (setting [3]) and in experiment [2] was less than 50 nM throughout.
Take `O=C(CCc1cn(-c2ccccc2)nn1)N[C@@H](Cc1ccsc1)B(O)O` [Example 41, [(1R)-1-{[3-(1-phenyl-1H-1,2,3-triazol-4-yl)propanoyl]amino}-2-(3-thienyl)ethyl]boronic acid]: the “Selectivity LMP7 vs Beta5” value in experiment [1] is on record as “+++ (+++: Selectivity > 30)”. Also, the IC50 in experiment [1] (setting [4]) is less than 50 nM; in experiment [2] it was 500 to 5000 nM.
For `CCc1cccc(C[C@H](NC(=O)CCC(=O)c2cccc(-c3ccccc3)c2)B(O)O)c1` [Example 19, [(1R)-1-[(4-biphenyl-3-yl-4-oxobutanoyl)amino]-2-(3-ethylphenyl)ethyl]boronic acid] the same measures were “++ (++: 10 < Selectivity < 30)”, 50 to 500 nM and 500 to 5000 nM.
For `O=C(CC(C(=O)N[C@@H](Cc1ccsc1)B(O)O)c1ccc(Cl)cc1)c1ccccc1` (mixture of isomers) [Example 4, [(1R)-1-{[2-(RS)-(4-chlorophenyl)-4-oxo-4-phenylbutanoyl]amino}-2-(3-thienyl)ethyl]boronic acid] the same measures were “+++ (+++: Selectivity > 30)”, 50 to 500 nM and 500 to 5000 nM.
For `COc1cc(F)cc(C[C@H](NC(=O)CCn2cc(-c3ccccc3)nn2)B(O)O)c1` [Example 65, (R)-(2-(3-fluoro-5-methoxyphenyl)-1-(3-(4-phenyl-1H-1,2,3-triazol-1-yl)propanamido)ethyl)boronic acid] the same measures were “++ (++: 10 < Selectivity < 30)”, less than 50 nM and 50 to 500 nM.
Consider `O=C(CCC(=O)c1cccc(-c2ccccc2)c1)N[C@@H](Cc1ccsc1)B(O)O` [Example 22, [(1R)-1-[(4-biphenyl-3-yl-4-oxobutanoyl)amino]-2-(3-thienyl)ethyl]boronic acid], for which the “Selectivity LMP7 vs Beta5” value in experiment [1] is on record as “++ (++: 10 < Selectivity < 30)”. The IC50 in experiment [1] (setting [4]) fell in the range of 50 to 500 nM; in experiment [2], 500 to 5000 nM.
For `CCc1cccc(C[C@H](NC(=O)CCn2cc(-c3ccccc3)nn2)B(O)O)c1` [Example 52, (R)-(2-(3-ethylphenyl)-1-(3-(4-phenyl-1H-1,2,3-triazol-1-yl)propanamido)ethyl)boronic acid] the same measures were “+++ (+++: Selectivity > 30)”, less than 50 nM and 50 to 500 nM.
For `O=C(CCC(=O)c1ccc2ccccc2c1)N[C@@H](Cc1ccsc1)B(O)O` [Example 21, [(1R)-1-{[4-(2-naphthyl)-4-oxobutanoyl]amino}-2-(3-thienyl)ethyl]boronic acid] the same measures were “++ (++: 10 < Selectivity < 30)”, 50 to 500 nM and 500 to 5000 nM.
For `CCOc1cccc(C[C@H](NC(=O)CCn2cnc3ccccc32)B(O)O)c1` [Example 67, (R)-(1-(3-(1H-benzo[d]imidazol-1-yl)propanamido)-2-(3-ethoxyphenyl)ethyl)boronic acid] the same measures were “++ (++: 10 < Selectivity < 30)”, less than 50 nM and 50 to 500 nM.
`COc1ccc(C(=O)C[C@@H](Cc2ccccc2)C(=O)N[C@@H](Cc2ccc(OC)c(C(F)(F)F)c2)B(O)O)cc1` [Example 45, ((R)-1-((R)-2-benzyl-4-(4-methoxyphenyl)-4-oxobutanamido)-2-(4-methoxy-3-(trifluoromethyl)phenyl)ethyl)boronic acid]: the “Selectivity LMP7 vs Beta5” value in experiment [1] is “+++ (+++: Selectivity > 30)”. The values for the IC50 in experiment [1] (setting [4]) and in experiment [2] were less than 50 nM and 500 to 5000 nM, respectively.
For `COc1ccccc1CCC(=O)N[C@@H](Cc1coc2ccccc12)B(O)O` [Example 82] the same measures were “++ (++: 10 < Selectivity < 30)”, less than 50 nM and less than 50 nM.
For `O=C(CCN1CCNCC1)N[C@@H](Cc1coc2ccccc12)B(O)O` [Example 92, (R)-(2-(benzofuran-3-yl)-1-(3-(piperazin-1-yl)propanamido)ethyl) boronic acid hydrochloride] the same measures were “+++ (+++: Selectivity > 30)”, less than 50 nM and 50 to 500 nM.
For `CCOc1cccc(CC(NC(=O)CCn2cc(-c3ccccc3)nn2)B(O)O)c1` (stereo not drawn) [Example 70, (2-(3-ethoxyphenyl)-1-(3-(4-phenyl-1H-1,2,3-triazol-1-yl)propanamido)ethyl)boronic acid] the same measures were “++ (++: 10 < Selectivity < 30)”, less than 50 nM and 50 to 500 nM.
With `CCc1cccc(C[C@H](NC(=O)CCC(=O)c2ccc(-c3ccccc3)cc2)B(O)O)c1` [Example 17, [(1R)-1-[(4-biphenyl-4-yl-4-oxobutanoyl)amino]-2-(3-ethylphenyl)ethyl]boronic acid], the “Selectivity LMP7 vs Beta5” value in experiment [1] is “++ (++: 10 < Selectivity < 30)”. For the same molecule, the values for the IC50 in experiment [1] (setting [4]) and in experiment [2] were 50 to 500 nM and 500 to 5000 nM, respectively.
